{"source": "paper PMC3466217", "about": "“A Novel Magnetic Nanoparticle Drug Carrier for Enhanced Cancer Chemotherapy” (PLoS ONE, 2012)", "key": {"[1]": {"assay": "DOX biodistribution in H22 tumor-bearing mice", "format": "in vivo, BALB/c mice", "conditions": "5 mg DOX/kg, tail vein, 0.5 hr after treatment, no EMF", "description": "The blood, main organs (heart, lung, liver, spleen, kidney), and the tumor of each mouse were harvested for quantitative analysis of the DOX biodistribution. The blood was centrifuged at 5,000 rpm for 1 min at 4°C and the supernatant was obtained by adding 180 µl methanol and 20 µl of inner standard solution (0.2 mg/ml daunorubicin solution dissolved in methanol) to a 2-ml tube containing 200 µl plasma. For the organ (heart, lung, liver, spleen, kidney) and tumor samples, the frozen tissues were weighed and homogenized at 4°C in 0.9% NaCl to a total volume of 10 ml, and centrifuged at 5,000 rpm for 1 min at 4°C to retrieve the supernatant.\nA total volume of 200 µl of the plasma, or the supernatant of homogenized tissue, or the tumor samples was then mixed with 180 µl methanols and 20 µl inner standard solutions, followed by 0.4 g sodium sulfate. The mixture was homogenized by vortexing for 5 min and then incubated at 4°C for 1 hr. After the 1-hr incubation, the mixture was centrifuged at 12,000 rpm for 15 min. […] Finally, the percent-injected dose per gram tissue of the tissue and tumor samples was calculated."}, "H22 hepatoma cell tumor": {"system": "H22 hepatoma cell tumor", "assay": "Chemotherapy experiments in H22 tumor-bearing mice (tumor volume, life span, histology)", "conditions": "no EMF", "quoted_text": "The mouse hepatoma H22 cell line was grown in RPMI-1640 medium supplemented with 10% FBS, 100 units/ml of penicillin and 100 µg/ml of streptomycin at 37°C and 5% CO2. BALB/c mice (4- to 8-week-old males, body weight 26±5 g) were housed (one mouse per cage) under specific pathogen-free conditions, maintained on a 12-hour light-dark cycle with controlled temperature (20–24°C), and were given sterile food. The tumor-bearing mouse model was generated by subcutaneous injection of 4×10^5 H22 cells with 50 µl phosphate-buffered saline (PBS) into the shaved right flank. The treatment protocol required the mice to be anesthetized and these were anesthetized with ketamine (80 mg/kg) and xylazine (3 mg/kg), and acepromazine (2 mg/kg) via intraperitoneal injection (IP). If an additional dose was needed, ketamine alone was used.\nThe doses were normalized to 5 mg DOX per kg body weight when the tumor volume reached 50 to 100 mm^3 (∼10 days after tumor cell inoculation). The volume for 150 µl was injected via the tail vein and the treatment was carried out three times without interval in three weeks.\nChemotherapy experiments: H22 tumor-bearing mice (4 groups; for each group, n = 18) were used and the treatment was performed as described above. The antitumor effect was assessed by the following steps: 1) six mice were sacrificed for each group on the 24th day following treatment. The tumors were harvested and fixed in 10% formalin, embedded in paraffin and sectioned (5 µm coupes) for hematoxylin–eosin (HE) staining for microscopic examination purposes; 2) tumor sizes (4 groups; for each group, n = 12) were measured by a caliper before therapy and every three days after treatment using the following equation: tumor volume (V, mm^3) = (tumor length×tumor width)^2/2. The life span of each animal was also recorded. The relative tumor volume was calculated from V = V/V0, where V0 is the tumor volume at the beginning of treatment. The endpoints of the antitumor effect were evaluated by the degree of tumor growth inhibition and life span after treatment."}, "H22 cells": {"system": "H22 cells", "assay": "Cytotoxicity in H22 cell culture (MTT assay)", "format": "cell-based, mouse", "conditions": "24 hrs, concentration as DOX", "description": "A volume of 180 µl of H22 cells were seeded in 96-well plates (4,000 cells/well).\nControl cells were cultured in medium only. Thiazolyl blue tetrazolium bromide (25 µl of 5 mg/ml) (MTT, AMRESCO Inc, Solon, OH) was added to each well and incubated for 4 hrs. The culture medium was removed from the wells and replaced with 150 µl dimethylsulfoxide (DMSO, BioTek, Winooski, VT). After shaking gently for 15 min at 25°C, the DMSO solution was transferred to centrifugation tubes and centrifuged at 2,000 rpm for 5 min. The absorbance was then measured at 570 nm with an ELx-800 Universal Microplate Reader (BioTek, Winooski, VT). […] The half-maximal inhibitory concentration (IC50; drug concentration corresponding to 50% growth inhibition) was calculated using SigmaPlot 9.0 software (Systat Software Inc., San Jose, CA) and the 4-parameter logistic function standard curve analysis for dose response."}}}
{"smiles": "COc1cccc2c1C(=O)c1c(O)c3c(c(O)c1C2=O)C[C@@](O)(C(=O)CO)C[C@@H]3O[C@H]1C[C@H](N)[C@H](O)[C@H](C)O1", "note": "[DOX, doxorubicin]", "values": [{"measurement": "DOX concentrations in the other organs (heart, lung and kidney)", "setting": "[1]", "value": "Very low concentrations"}, {"measurement": "percent injected dose per gram tissue in blood", "setting": "[1]", "value": 1.07, "unit": "%"}, {"measurement": "percent injected dose per gram tissue in livers", "setting": "[1]", "value": 0.402, "unit": "%"}, {"measurement": "percent injected dose per gram tissue in spleens", "setting": "[1]", "value": 0.634, "unit": "%"}, {"measurement": "percent injected dose per gram tissue in tumors", "setting": "[1]", "value": 0.741, "unit": "%"}, {"measurement": "life span of tumor-bearing mice", "setting": "H22 hepatoma cell tumor; 5 mg DOX/kg iv three times", "value": "31.3 ± 3.31", "unit": "days"}, {"measurement": "tumor histology (HE staining)", "setting": "H22 hepatoma cell tumor; 24th day following treatment", "value": "A few necrotic cells were observed"}, {"measurement": "relative tumor volume (V/V0)", "setting": "H22 hepatoma cell tumor; 21 days after start of treatment, 5 mg DOX/kg iv three times", "value": "7.08±1.68"}, {"measurement": "survival rate of tumor-bearing mice", "setting": "H22 hepatoma cell tumor; following treatment for 33 days", "value": 33.3, "unit": "%"}, {"measurement": "IC50 (cell inhibition rate)", "setting": "H22 cells", "value": "0.530 ± 0.010", "unit": "µg/mL"}]}
